Data from patent US9573899B2, “USP7 inhibitor compounds and methods of use” (Genentech, Inc., priority 2015, dated 2017).

Columns and labels:
[1] = target: T1, USP7 (Homo sapiens, UniProt Q93009); assay: Ub-Rho110 DUB assay, Table 2, USP7; type: biochemical
T1 construct: USP7, full-length, native C-Terminus, 0.2 nM

[2] = target: USP7 catalytic domain (Homo sapiens, UniProt Q93009); assay: Ub-Rho110 DUB assay, Table 2, USP7 catalytic domain; type: biochemical; conditions: read-out: Ub-Rho110 IC50, USP7 cat
[3] = target: T2, USP7, full-length, native C-Terminus (Homo sapiens, UniProt Q93009); assay: Biochemical USP7 assay with Ubiquitin-Rho110 substrate, compounds pre-incubated with USP7 (USP7_Ub-Rho preInc); conditions: compounds pre-mixed with USP7, 1 hour incubation, before substrate; read-out: USP7 Ub-Rho preInc (IC50)
T2 construct: USP7, full-length, native C-Terminus, 0.2 nM
Method: (§1) Biochemical USP7 assays using Ubiquitin-Rho110 as a substrate: The final assay conditions were as follows: The Reaction Buffer consisted of: 50 mM Tris (pH 7.5), 0.01% (v/v) Triton X-100, 2.5 mM Dithiothreitol, 0.1% (w/v) bovine gamma globulin (Sigma cat #G5009-25G); USP7, full-length, native C-Terminus, 0.2 nM; the substrate, Ubiquitin-Rho110 (Boston Biochem cat #U-555), 1 uM. Reactions were carried out for 1 hour at room temperature, in black 20 μL volume polystyrene ProxiPlate 384 F Plus® (PerkinElmer cat #6008260).
(§2) Test compounds, including a control USP7 inhibitor (Ub-aldehyde, Boston Biochem cat #U-201) were serially diluted in DMSO, in 384 well clear V-bottom polypropylene plates (Greiner cat #781280). Compounds in DMSO were diluted 10-fold into Reaction Buffer, to achieve 3-fold the final desired concentration. The substrate, Ubiquitin-Rho110 (Boston Biochem cat #U-555), was prepared at 3 μM (3-fold the final concentration) and 5 ul was dispensed into the reaction plate. 5 ul of the compounds (diluted in Reaction Buffer at 3-fold the final concentration) were transferred to the reaction plate. 5 ul of 0.6 nM USP7 (diluted in Reaction Buffer at 3-fold the final concentration) was transferred to the reaction plate to initiate the reaction. After 1 hour incubation at room temperature the reaction was quenched by the addition of 5 ul of 400 mM acetic acid. The enzymatic product was measured by quantifying the fluorescence signal of cleaved Rhodamine-110 using excitation at 485 nm and emission at 535 nm. When pre-incubation of USP7 with compounds was required, the order of addition of reagents was modified to pre-mix the compounds with USP7 (with a 1 hour incubation period), prior to the addition of the substrate and the initiation of the reaction period. Percentage inhibition values were calculated relative to a no enzyme control and a uninhibited enzyme control. Curve fitting and IC50 calculations were carried out using Genedata Screener software.

[4] = target: T3, USP47 (Homo sapiens, UniProt Q96K76); assay: Ub-Rho110 DUB assay, Table 2, USP47; type: biochemical
T3 sequence (Q96K76 1-1375): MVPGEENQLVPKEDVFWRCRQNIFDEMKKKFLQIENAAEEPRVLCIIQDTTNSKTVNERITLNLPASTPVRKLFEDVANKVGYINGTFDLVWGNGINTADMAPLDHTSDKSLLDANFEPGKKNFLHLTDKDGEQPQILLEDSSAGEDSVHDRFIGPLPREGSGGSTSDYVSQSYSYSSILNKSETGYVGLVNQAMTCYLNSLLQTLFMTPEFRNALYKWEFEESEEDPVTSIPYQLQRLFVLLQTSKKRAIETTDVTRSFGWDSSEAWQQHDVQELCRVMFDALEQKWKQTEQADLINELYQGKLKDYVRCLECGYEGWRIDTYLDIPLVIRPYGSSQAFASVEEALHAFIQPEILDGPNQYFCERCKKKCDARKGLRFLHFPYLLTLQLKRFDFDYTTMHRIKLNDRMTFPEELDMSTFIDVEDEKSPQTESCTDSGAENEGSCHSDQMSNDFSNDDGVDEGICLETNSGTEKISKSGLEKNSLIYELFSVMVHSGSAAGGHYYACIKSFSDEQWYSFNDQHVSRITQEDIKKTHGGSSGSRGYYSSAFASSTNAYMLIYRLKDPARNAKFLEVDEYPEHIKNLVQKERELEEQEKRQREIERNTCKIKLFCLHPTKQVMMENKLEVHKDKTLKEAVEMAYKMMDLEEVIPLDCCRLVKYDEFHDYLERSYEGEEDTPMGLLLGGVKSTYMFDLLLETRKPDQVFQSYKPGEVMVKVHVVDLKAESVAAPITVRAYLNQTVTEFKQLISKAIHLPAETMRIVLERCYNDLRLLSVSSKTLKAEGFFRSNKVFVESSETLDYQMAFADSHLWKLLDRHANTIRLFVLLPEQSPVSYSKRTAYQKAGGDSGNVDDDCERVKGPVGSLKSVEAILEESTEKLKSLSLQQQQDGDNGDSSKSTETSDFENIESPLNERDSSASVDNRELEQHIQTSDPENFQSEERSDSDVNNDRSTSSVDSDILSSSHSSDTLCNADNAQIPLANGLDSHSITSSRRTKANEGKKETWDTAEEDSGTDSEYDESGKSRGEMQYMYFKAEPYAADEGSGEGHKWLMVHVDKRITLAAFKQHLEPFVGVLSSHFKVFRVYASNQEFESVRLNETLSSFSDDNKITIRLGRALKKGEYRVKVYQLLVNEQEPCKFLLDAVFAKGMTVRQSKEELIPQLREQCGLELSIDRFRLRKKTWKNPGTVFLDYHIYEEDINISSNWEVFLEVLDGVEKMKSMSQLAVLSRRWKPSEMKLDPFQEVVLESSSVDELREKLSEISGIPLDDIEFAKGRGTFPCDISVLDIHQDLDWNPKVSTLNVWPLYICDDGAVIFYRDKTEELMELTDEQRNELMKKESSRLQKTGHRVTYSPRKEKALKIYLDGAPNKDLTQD

[5] = target: T2, USP7, full-length, native C-Terminus; assay: Biochemical USP7 assay with Ubiquitin-Rho110 substrate (USP7_Ub-Rho110 Fluor); conditions: no pre-incubation; 1 hour reaction at room temperature; read-out: USP7 Ub-Rho110 Fluor (IC50)
Method: as §1, §2

[6] = system: p53 and p21 in HCT116 colon cancer cell lines; assay: Western blot of p53 and p21 in isogenic HCT116 cell lines (FIG. 2A); type: cell-based, Human; conditions: isogenic HCT116: wild-type, USP7 null
Method: In 24-well plates, 0.10-0.15×10^6 (adherent) or 0.5×10^6 (suspension) cells were treated with 15 μM or 2.5 μM compounds, respectively, for 24 h in low serum prior to lysis for Western Blot analysis.

T2 sequence (Q93009 whole entry): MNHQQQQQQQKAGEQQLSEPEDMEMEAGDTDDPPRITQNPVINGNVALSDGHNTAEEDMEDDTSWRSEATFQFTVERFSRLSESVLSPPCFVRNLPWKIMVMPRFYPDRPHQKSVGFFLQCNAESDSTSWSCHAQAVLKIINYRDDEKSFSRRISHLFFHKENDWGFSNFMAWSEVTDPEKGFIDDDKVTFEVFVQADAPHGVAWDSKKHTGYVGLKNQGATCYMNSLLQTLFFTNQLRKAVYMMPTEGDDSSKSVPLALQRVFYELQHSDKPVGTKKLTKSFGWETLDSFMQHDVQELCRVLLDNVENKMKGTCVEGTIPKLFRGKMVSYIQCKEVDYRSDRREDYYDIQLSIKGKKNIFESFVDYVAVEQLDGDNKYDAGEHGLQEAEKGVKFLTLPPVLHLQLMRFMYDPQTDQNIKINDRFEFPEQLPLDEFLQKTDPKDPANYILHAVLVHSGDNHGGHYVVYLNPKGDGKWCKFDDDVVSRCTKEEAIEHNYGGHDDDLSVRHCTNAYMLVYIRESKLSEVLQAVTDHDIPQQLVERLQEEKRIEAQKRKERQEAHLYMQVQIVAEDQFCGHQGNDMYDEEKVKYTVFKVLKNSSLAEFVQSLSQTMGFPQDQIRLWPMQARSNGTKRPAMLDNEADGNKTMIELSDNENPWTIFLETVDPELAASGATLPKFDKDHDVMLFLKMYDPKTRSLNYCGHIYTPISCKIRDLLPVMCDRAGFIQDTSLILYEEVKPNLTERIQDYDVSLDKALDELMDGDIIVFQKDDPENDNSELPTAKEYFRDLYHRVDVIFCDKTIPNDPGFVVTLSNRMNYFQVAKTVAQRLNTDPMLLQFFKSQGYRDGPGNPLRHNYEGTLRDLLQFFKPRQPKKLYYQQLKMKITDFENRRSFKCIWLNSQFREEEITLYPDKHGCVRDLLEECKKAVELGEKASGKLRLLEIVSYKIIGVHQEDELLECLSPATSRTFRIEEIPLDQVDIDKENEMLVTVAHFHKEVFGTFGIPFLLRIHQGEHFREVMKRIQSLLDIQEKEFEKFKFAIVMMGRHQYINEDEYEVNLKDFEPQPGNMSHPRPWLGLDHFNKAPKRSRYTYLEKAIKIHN
USP7 catalytic domain, sequence (Q93009 214-521 limits assumed): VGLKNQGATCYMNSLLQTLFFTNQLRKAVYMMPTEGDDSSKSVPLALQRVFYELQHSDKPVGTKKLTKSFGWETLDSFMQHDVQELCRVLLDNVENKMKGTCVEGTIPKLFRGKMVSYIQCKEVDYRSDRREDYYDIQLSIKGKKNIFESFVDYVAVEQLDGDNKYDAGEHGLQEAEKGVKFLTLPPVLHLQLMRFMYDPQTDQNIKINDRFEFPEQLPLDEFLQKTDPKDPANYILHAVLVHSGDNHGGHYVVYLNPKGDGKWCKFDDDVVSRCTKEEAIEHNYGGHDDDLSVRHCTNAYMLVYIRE
T1 sequence (Q93009 whole entry): as the sequence (Q93009 whole entry) above

Row | SMILES | IC50 [3] [µM] | IC50 [5] [µM] | further results
1 | CCc1c(-c2ccc(C(=O)NC)cc2)cnc(N)c1-c1ccc(O)cc1 [Compound 81, 4-[6-amino-4-ethyl-5-(4-hydroxyphenyl)-3-pyridyl]-N-methyl-benzamide] | 3.3 |  | IC50 [1]: 1400 nM; IC50 [2]: 530 nM; IC50 [4]: > 200 µM
2 | Nc1ncc(-c2ccc(O)cc2)c(C(F)(F)F)c1-c1ccc(O)cc1 [Compound 5, 4-[6-amino-5-(4-hydroxyphenyl)-4-(trifluoromethyl)-3-pyridyl]phenol] | 7.1 | 6 | 
3 | COc1c(-c2ccc(O)cc2)cnc(N)c1-c1ccc(O)cc1 [Compound 4, 4-[6-amino-5-(4-hydroxyphenyl)-4-methoxy-3-pyridyl]phenol] |  | 29.1 | 
4 | Nc1ncc(-c2ccc(O)cc2)c(C2CC2)c1-c1ccc(O)cc1 [Compound 9, 4-[6-amino-4-cyclopropyl-5-(4-hydroxyphenyl)-3-pyridyl]phenol] |  | 56.6 | 
5 | CC(C)c1c(-c2ccc(O)cc2)cnc(N)c1-c1ccc(O)cc1 [Compound 3, 4-[6-amino-5-(4-hydroxyphenyl)-4-isopropyl-3-pyridyl]phenol] |  | 197 | 
6 | CCCc1c(-c2ccc(O)cc2)cnc(N)c1-c1ccc(O)cc1 [Compound 6, 4-[6-amino-5-(4-hydroxyphenyl)-4-propyl-3-pyridyl]phenol] |  | 35.2 | 
7 | Cc1c(-c2ccc(O)cc2)cnc(N)c1-c1ccc(O)cc1 [Compound 1, 4-[6-amino-5-(4-hydroxyphenyl)-4-methyl-3-pyridyl]phenol] |  | 7.7 | 
8 | CCc1c(-c2cccc(CC#N)c2)cnc(N)c1-c1ccc(O)cc1 [Compound 66, 2-[3-[6-amino-4-ethyl-5-(4-hydroxyphenyl)-3-pyridyl]phenyl]acetonitrile] | 18.3 |  | 
9 | CCc1c(-c2ccc(O)cc2)cnc(N)c1-c1cccc(CN2CCOCC2)c1 [Compound 26, 4-[6-amino-4-ethyl-5-[3-(morpholinomethyl)phenyl]-3-pyridyl]phenol] | 145 |  | 
10 | CCc1c(-c2cccc(CN3CCOCC3)c2)cnc(N)c1-c1ccc(O)cc1 [Compound 82, 4-[2-amino-4-ethyl-5-[3-(morpholinomethyl)phenyl]-3-pyridyl]phenol] | 18.2 |  | 
11 | CCc1c(-c2ccc(C(=O)NC)nc2)cnc(N)c1-c1ccc(O)cc1 [Compound 92, 5-[6-amino-4-ethyl-5-(4-hydroxyphenyl)-3-pyridyl]-N-methyl-pyridine-2-carboxamide] | 1.5 |  | stabilization of p53 and p21 (western blot) [6]: stabilize p53 and p21
12 | CCc1c(-c2cncnc2)cnc(N)c1-c1ccc(O)cc1 [Compound 32, 4-(2-amino-4-ethyl-5-pyrimidin-5-yl-3-pyridyl)phenol] | 69.9 |  | 

The next lines start with results.

Row | IC50 [3] [µM] | IC50 [5] [µM] | SMILES | further results
13 | 4.6 | 3 | CCc1c(-c2ccc(O)cc2)cnc(N)c1-c1ccc(O)cc1 [Compound 2, 4-[6-amino-4-ethyl-5-(4-hydroxyphenyl)-3-pyridyl]phenol] | 
14 |  | 23.9 | CCc1c(-c2cccc(CN(C)C)c2)cnc(N)c1-c1ccc(O)cc1 [Compound 12, 4-[2-amino-5-[3-[(dimethylamino)methyl]phenyl]-4-ethyl-3-pyridyl]phenol] | 
15 |  | 4.5 | CCc1c(-c2ccc(O)cc2F)cnc(N)c1-c1ccc(O)cc1 [Compound 7, 4-[6-amino-4-ethyl-5-(4-hydroxyphenyl)-3-pyridyl]-3-fluoro-phenol] | 
16 |  | 45 | CCc1c(-c2cccc(NC(C)=O)c2)cnc(N)c1-c1ccc(O)cc1 [Compound 8, N-[3-[6-amino-4-ethyl-5-(4-hydroxyphenyl)-3-pyridyl]phenyl]acetamide] | 
17 |  | > 20 | CCc1c(-c2ccc(O)cc2)cnc(N)c1-c1ccc(O)cc1F [Compound 11, 4-[2-amino-4-ethyl-5-(4-hydroxyphenyl)-3-pyridyl]-3-fluoro-phenol] | 
18 | 13 | 7.5 | CCc1c(-c2ccc(O)cc2)cnc(N)c1-c1ccc(OC)cc1F [Compound 10, 4-[6-amino-4-ethyl-5-(2-fluoro-4-methoxy-phenyl)-3-pyridyl]phenol] | 
19 | > 20 |  | CCc1c(-c2cc(F)cc(F)c2)cnc(N)c1-c1ccc(O)cc1 [Compound 76, 4-[2-amino-5-(3,5-difluorophenyl)-4-ethyl-3-pyridyl]phenol] | 
20 | 12.5 |  | CCc1c(-c2ccc(O)cc2)cnc(N)c1-c1ccc(O)c(C#N)c1 [Compound 72, 5-[2-amino-4-ethyl-5-(4-hydroxyphenyl)-3-pyridyl]-2-hydroxy-benzonitrile] | 
21 | 44.2 |  | CCc1c(-c2ccc(C#N)cc2)cnc(N)c1-c1ccc(O)cc1 [Compound 51, 4-[6-amino-4-ethyl-5-(4-hydroxyphenyl)-3-pyridyl]benzonitrile] | 
22 | 13.8 |  | CCc1c(-c2ccc(O)cc2)cnc(N)c1-c1ccc2cn[nH]c2c1 [Compound 93, 4-[6-amino-4-ethyl-5-(1H-indazol-6-yl)-3-pyridyl]phenol] | 
23 | > 63.3 |  | CCc1c(-c2ccc(OC)nc2)cnc(N)c1-c1ccc(O)cc1 [Compound 68, 4-[2-amino-4-ethyl-5-(6-methoxy-3-pyridyl)-3-pyridyl]phenol] | 
24 | 45 |  | CCc1c(-c2ccc(C#N)c(F)c2)cnc(N)c1-c1ccc(O)cc1 [Compound 67, 4-[6-amino-4-ethyl-5-(4-hydroxyphenyl)-3-pyridyl]-2-fluoro-benzonitrile] | 
25 | 47.3 |  | CCc1c(-c2ccnc(C)c2)cnc(N)c1-c1ccc(O)cc1 [Compound 73, 4-[2-amino-4-ethyl-5-(2-methyl-4-pyridyl)-3-pyridyl]phenol] | 
